Values quoted from earlier work, collected in patent publication US8173686B2, “Use of picoplatin to treat colorectal cancer” (priority 2006, dated 2012).

Details: in vivo

SMILES: N.N.O=C([O-])C1(C(=O)[O-])CCC1.[Pt+2] [carboplatin]
- main / dose-limiting toxicity: myelosuppression
